“Also recorded” adds a separate entry of the source. Numbered stars: 1 amine (or outer) side, 2 acyl side, 3 side chain; on linkers, the order of the positions; unused ones are H or OH. Bridge positions count the residues as written; N and C are the ends. Square brackets hold non-standard residues; d marks the D form. Ends that are not written are not given here. GlyBU(C4) = Gly building unit (N-alpha-functionalized Gly) carrying a C4 alkyl chain (n = m = 4), bridged through a urea group; CO = O=C([*:1])[*:2]
Experiments:
[1] = tested on: Lovo cancer cell-line; assay: Wound-scratch migration assay, Lovo cell monolayers; assay type: cell-based; settings: AYPGKF activated, 24 hr, 150 μM and 300 μM, FIG. 8D-8K
Procedure: (§1) HEK293 cells were transiently transfected with flg-Par4 followed by AYPGKF PAR4 activation in the presence and absence of PAR4c (4-4) within the range of 50 nM-150 μM. IP of cell lysates following different periods of activation was carried out using anti flg abs. Detection of Akt was performed by anti Akt abs. β-actin serves as a control gene for loading. […] Matrigel invasion before and after AYPGKF PAR4 activation and in the presence and absence of PAR4 c(4-4) inhibitor in the activated PAR4 cells. A range between 50 nM-150 μM PAR4 c(4-4) inhibitor was applied. While ample Matrigel invasion is seen following PAR4 activation, this was attenuated in the presence of the inhibitor in all the concentrations used, similar to control prior to PAR4 activation. FIG. 8C—Histograms represent quantification of the cells/HPF invaded the Matrigel layer. Unpaired Student's t test was used. This experiment is a representative of three independent experiments performed in triplicates. FIG. 8D-8K show Wound-scratch migration assay. Lovo cancer cell-line was grown to confluence. Then, an equal wound scratch was introduced to Lovo cell monolayers. Monolayers were serum starved overnight and PAR4 was activated or not with AYPGKF. One hour prior to activation PAR4 c(4-4), either at 150 μM or 300 μM concentrations was added to the monolayers.
Migration was evaluated by “wound scratch assay” applied. […]

[2] = tested on: Lovo colon cancer cells; assay: Matrigel invasion of Lovo colon cancer cells after AYPGKF PAR4 activation; assay type: cell-based; settings: PAR4 activated Lovo cells, 50 nM-150 μM, FIGS. 8B and 8C
Procedure: as §1, with “Monolayers were serum starved overnight and PAR4 was activated or not with AYPGKF. One hour prior to activation PAR4 c(4-4), either at 150 μM or 300 μM concentrations was added to the monolayers.” left out
When we analyzed the impact of Pc(4-4) on the capability of activated PAR4 in Lovo colon cancer cell line to invade Matrigel, a robust invasion is seen (FIG. 8B), inhibited in the presence of Pc(4-4). […]

[3] = tested on: RKO/hPar4 cells; assay: Xenograft tumor model, RKO/hPar4 clone inoculated subcutaneously in nude mice; assay type: in vivo; settings: for tumor growth / tumor size: RKO/hPar4 in nude mice, s.c. at tumor site, 100 μM, 0.25 mg/30 gm, 3 times/week, from day of inoculation or 4 days later, 32 days
Procedure: FIG. 9A. A clone of RKO/PAR4 overexpressing cells (1×10^6) were injected subcutaneously into nude mice. PAR4 c(4-4) (100 μM; 0.25 mg/30 gm) was subcutaneously injected, at the site of the tumor either at the same day of RKO/PAR4 clone inoculation or 4 days later. The inhibitor was applied repeatedly 3 times/week for 3 weeks. Mice were weighted every 3 days and tumor size was measured. Mice were sacrificed after 32 days. […] Tumors were weighed and measured for size at the indicated time points and tumor volume was calculated05. FIG. 9C. qPCR of a representative RKO stable clone of PAR4. Error bars show s.d.; *** P<0.001. FIG. 9D. IHC of RKO/PAR4 derived tumors. Immunohistochemistry of RKO compared to small tumors in the presence of PAR4 c(4-4) inhibitor. Levels of proliferation in the large and small tumors were indicated by applying anti ki67 abs (FIG. 9Da and 9Db). For apoptosis, application of active caspase-3 Abs were applied (FIG. 9Dc and 9Dd). […] FIG. 9E. Histograms representing positive IHC in each treatment group. […] Hematoxilyn & eosin staining of large (left panel) and small (right panel) tumors distinctly indicate to the appearance of a wide basement membrane in the small tumors whereas a thinner and cell-invaded basement membrane is observed in large tumors.
We have generated stable clones overexpressing PAR4 in RKO cells, a non-aggressive colon cancer cell line (expressing wt p53), by infecting the cells with HA-hPar4 virus. This was followed by selection using Geneticin G418 resistance (500 μg/ml) to produce RKO/hPar4 clones. Clone efficiency generation was evaluated using qPCR analyses.
Male athymic nude mice aged 6-7 weeks were pre-implanted subcutaneously with the relevant cells (1×10^6 cells): either with HCT-116 or with RKO/hPar4 cells.
The inhibitor was injected at the site of the tumor at the day of inoculation. In an additional group, mice implanted with HCT-116 were administered with the inhibitor at day 4 after inoculation. The inhibitor ([…]) was applied repeatedly 3 times/week to all mice after the first administration of the inhibitor.
Mice were monitored for tumor size by external caliber measurements (length and width) on days 7, 14, 22 and for up to 32 days, if tumor burden allowed. Tumor volume (V) was calculated by V=L×W^2×0.5, where L is length and W is width. At the end of the experiment, mice were euthanized and tumors were removed, weighed and fixed in formalin for histology. All mice survived to the end of the experiment. All animal experiments were approved by the animal committee of the Hebrew University (MD-19-15924). In fact, for the xenograft tumor formation we have utilized two types of cell lines; the HCT116 cells, an aggressive colon cancer cell line, overexpressing oncogenes among of which is also PAR4, (FIGS. 10A and 10B) and clone/s overexpressing Par4, generated in RKO cell line; RKO/hPar4 cells (FIG. 9A-9C). HCT116 (1×10^6) and RKO/hPar4 (1×10^6) clone/s were inoculated subcutaneously in nude mice. The Pc(4-4) cyclic peptide was injected at the site of the tumor (100 μM; 0.25 mg/30 gram mouse), either at the time of tumor cell injection or 4 days after tumor-cell implantation. The Pc(4-4) cyclic peptide was applied repeatedly 3 times/week. The HCT116 cell inoculation generated large tumors and were terminated after 20 days, whereas the RKO/Par4 inoculation developed tumors on a slower pace and were terminated after 32 days. […] The powerful inhibition of tumor growth was seen regardless of whether the Pc(4-4) cyclic peptide was applied at the same time of tumor inoculation or applied 4 days later. This was obtained irrespective of using an aggressive colon cancer cell line or stable RKO/hPar4 clone/s, overexpressing PAR4 (FIGS. 9A and 9B).

[4] = RKO/PAR4 derived small tumors generated in the presence of the inhibitor vs large tumors

Substance: Pc(4-4): backbone cyclic analog of Formula I, m=n=4, ring size 30 atoms (S[GlyBU(C4)]EFRDK[GlyBU(C4)]; bridge 2-8 via CO; not fully specified; printed as SZ1EFRDKX3)
- inhibition of migration/proliferation (wound scratch) [1]: marked inhibition
- inhibition of migration/proliferation (wound scratch) ([1]; listed as PAR4 c(4-4)): inhibits
- inhibition of Matrigel invasion [2]: inhibited
- inhibition of Matrigel invasion ([2]; listed as PAR4 c(4-4)): inhibits; also recorded: attenuated
- apoptosis in tumors (active caspase-3 IHC) [3, 4]: induced levels of active caspase-3
- proliferation in tumors (ki67 IHC) [3, 4]: little
- apoptosis in tumors (active caspase-3 IHC) ([3]; RKO/PAR4 derived small tumors generated in the presence of the inhibitor vs large tumors, listed as PAR4 c(4-4)): high levels of active caspase-3
- difference between treatment started at the day of inoculation or 4 days after inoculation ([3]; RKO/Par4 stable clones in nude mice): no statistical difference
- tumor growth / tumor size [3]: significantly smaller tumors
- tumor growth / tumor size ([3]; listed as PAR4 c(4-4)): potently inhibits
- tumor growth / tumor size ([3]; listed as PAR(4-4)): markedly small tumors

From patent US20230331781A1, “PAR4 DERIVED PEPTIDES, ANALOGS AND USES THEREOF” (Yissum Research Development Company of the Hebrew …, priority 2019, published 2023)
